The target in this assay is TBK1 (Homo sapiens (Human), UniProt Q9UHD2). Put plainly: TBK1 low ATP kinase assay (in vitro assay 1). It counts as biochemical.
The mark [1] stands for this setting: in vitro assay 1, read-out: TBK1 low ATP kinase assay IC50.

Structures are written as SMILES. Where two headings read alike, the source gives them in different places.

IC50 data for 19 compounds are collected here from patent publication US10894784B2, “Heteroarylbenzimidazole compounds” (BAYER PHARMA AKTIENGESELLSCHAFT, priority 2015, dated 2021).

TBK1, sequence (Q9UHD2 whole entry): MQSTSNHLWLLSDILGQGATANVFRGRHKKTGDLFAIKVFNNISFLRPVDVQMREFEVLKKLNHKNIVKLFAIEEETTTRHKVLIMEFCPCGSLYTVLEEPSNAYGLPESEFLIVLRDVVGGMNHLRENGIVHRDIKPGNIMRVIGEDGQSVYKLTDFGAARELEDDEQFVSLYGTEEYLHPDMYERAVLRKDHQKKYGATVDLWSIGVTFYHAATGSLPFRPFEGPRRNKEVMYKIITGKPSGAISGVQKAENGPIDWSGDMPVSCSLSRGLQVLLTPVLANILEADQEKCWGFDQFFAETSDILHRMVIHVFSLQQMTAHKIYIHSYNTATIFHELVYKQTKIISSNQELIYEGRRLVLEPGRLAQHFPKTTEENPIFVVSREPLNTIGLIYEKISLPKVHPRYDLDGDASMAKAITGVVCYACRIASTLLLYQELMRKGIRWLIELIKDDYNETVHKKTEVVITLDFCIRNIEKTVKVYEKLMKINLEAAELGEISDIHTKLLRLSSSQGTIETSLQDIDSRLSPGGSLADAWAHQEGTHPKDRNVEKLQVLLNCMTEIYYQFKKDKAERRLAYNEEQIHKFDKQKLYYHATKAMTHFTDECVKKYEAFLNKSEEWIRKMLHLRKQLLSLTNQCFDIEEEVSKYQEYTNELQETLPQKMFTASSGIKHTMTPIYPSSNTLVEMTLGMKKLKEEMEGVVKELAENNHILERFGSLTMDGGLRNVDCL

For orientation: IC50 means the point on the concentration scale where inhibition reaches its midpoint. Turning to `O=C(CC(F)(F)F)N1CCN(Cc2ccnc(Nc3nc4ccc(-c5cc(N6CCCCC6)ncn5)cc4[nH]3)c2)CC1` [Example 145.02, 3,3,3-trifluoro-1-(4-{[2-({6-[6-(piperidin-1-yl)pyrimidin-4-yl]-1H-benzimidazol-2-yl}amino)pyridin-4-yl]methyl}piperazin-1-yl)propan-1-one], under setting [1], the IC50 worked out at 0.0029 µM.

With `COc1cnc(C(=O)N(C)C)cc1-c1ccc2nc(Nc3cc(CN4CCN(C(=O)C5CC5)CC4)ccn3)[nH]c2c1` [Example 08.01, 4-{2-[(4-{[4-(cyclopropylcarbonyl)piperazin-1-yl]methyl}pyridin-2-yl)amino]-1H-benzimidazol-6-yl}-5-methoxy-N,N-dimethylpyridine-2-carboxamide], the IC50 under setting [1] is 0.624 µM.

With `O=C(C1CCC1)N1CCN(Cc2ccnc(Nc3nc4ccc(-c5nc(C6CC6)no5)cc4[nH]3)c2)CC1` [Example 17.06, cyclobutyl{4-[(2-{[6-(3-cyclopropyl-1,2,4-oxadiazol-5-yl)-1H-benzimidazol-2-yl]amino}pyridin-4-yl)methyl]piperazin-1-yl}methanone], under setting [1], the IC50 was found to be 0.0613 µM. For `Cc1cccc(N2CCN(Cc3ccnc(Nc4nc5ccc(-c6nc(C)no6)cc5[nH]4)c3)CC2)n1` [Example 101.19, 6-(3-methyl-1,2,4-oxadiazol-5-yl)-N-(4-{[4-(6-methylpyridin-2-yl)piperazin-1-yl]methyl}pyridin-2-yl)-1H-benzimidazol-2-amine], the IC50 under setting [1] stood at 0.34 µM.

As to `CSc1cc(-c2ccc3nc(Nc4cc(CN5CCN(C(=O)C6CC6)CC5)ccn4)[nH]c3c2)ncn1` [Example 95.02, cyclopropyl(4-{[2-({6-[6-(methylsulfanyl)pyrimidin-4-yl]-1H-benzimidazol-2-yl}amino)pyridin-4-yl]methyl}piperazin-1-yl)methanone], the IC50 under setting [1] came to 0.0095 µM. Still for that read-out and setting: as for `Cc1nccc(-c2ccc3nc(Nc4cc(CN5CCN(C(=O)CC(F)(F)F)CC5)ccn4)[nH]c3c2)c1Cl` [Example 130.02, 1-{4-[(2-{[6-(3-chloro-2-methylpyridin-4-yl)-1H-benzimidazol-2-yl]amino}pyridin-4-yl)methyl]piperazin-1-yl}-3,3,3-trifluoropropan-1-one], the figure is 0.19 µM. Still for that read-out and setting: as for `O=C(C1CC1)N1CCN(Cc2ccnc(Nc3nc4ccc(-c5ccsc5Cl)cc4[nH]3)c2)CC1` [Example 175.03, {4-[(2-{[6-(2-chlorothiophen-3-yl)-1H-benzimidazol-2-yl]amino}pyridin-4-yl)methyl]piperazin-1-yl}(cyclopropyl)methanone], the figure is 0.223 µM; as for `COc1cncnc1-c1ccc2nc(Nc3cc(CN4CCN(C(=O)C5CC5)CC4)ccn3)[nH]c2c1` [Example 35.01.02, cyclopropyl{4-[(2-{[6-(5-methoxypyrimidin-4-yl)-1H-benzimidazol-2-yl]amino}pyridin-4-yl)methyl]piperazin-1-yl}methanone], 0.018 µM. Consider `CC(c1ccnc(Nc2nc3ccc(-c4cc(N(C)CC5CC5)ncn4)cc3[nH]2)c1)N1CCN(C(=O)C2(C(F)(F)F)CC2)CC1` (single isomer, unassigned) [Example 197.04, {4-[(1R or 1S)-1-{2-[(6-{6-[(cyclopropylmethyl)(methyl)amino]pyrimidin-4-yl}-1H-benzimidazol-2-yl)amino]pyridin-4-yl}ethyl]piperazin-1-yl}[1-(trifluoromethyl)cyclopropyl]methanone], for which the IC50 under setting [1] stood at 0.00646 µM. The same measure, in the same setting: to `CC(c1ccnc(Nc2nc3ccc(-c4cnn(CC5CC5(C)C)c4)cc3[nH]2)c1)N1CCN(C(=O)CC(F)(F)F)CC1` (single isomer, unassigned) [Example 67.02, 1-{4-[(1R or 1S)-1-(2-{[6-(1-{[(1RS)-2,2-dimethylcyclopropyl]methyl}-1H-pyrazol-4-yl)-1H-benzimidazol-2-yl]amino}pyridin-4-yl)ethyl]piperazin-1-yl}-3,3,3-trifluoropropan-1-one] belongs 0.0029 µM; to `CC(C)Nc1cc(-c2ccc3nc(Nc4cc(CN5CCN(C(=O)CC(F)(F)F)CC5)ccn4)[nH]c3c2)ncn1` [Example 154.02, 3,3,3-trifluoro-1-(4-{[2-({6-[6-(propan-2-ylamino)pyrimidin-4-yl]-1H-benzimidazol-2-yl}amino)pyridin-4-yl]methyl}piperazin-1-yl)propan-1-one], 0.0033 µM; to `COc1cnccc1-c1ccc2nc(Nc3cc(CN4CCN(C(=O)C(C)(C)C)CC4)ccn3)[nH]c2c1` [Example 04.06, 1-{4-[(2-{[6-(3-methoxypyridin-4-yl)-1H-benzimidazol-2-yl]amino}pyridin-4-yl)methyl]piperazin-1-yl}-2,2-dimethylpropan-1-one], 0.0302 µM. In the case of `Cc1cc(-c2ccc3nc(Nc4cc(C(C)N5CCN(C(=O)CC(F)(F)F)CC5)ccn4)[nH]c3c2)ncn1` (racemic) [Example 30.02.01, (rac)-3,3,3-trifluoro-1-{4-[1-(2-{[6-(6-methylpyrimidin-4-yl)-1H-benzimidazol-2-yl]amino}pyridin-4-yl)ethyl]piperazin-1-yl}propan-1-one], under “TBK1 low ATP kinase assay IC50, in vitro assay 1”, it took 0.00446 µM to reach half-maximal inhibition (IC50). With `O=C(CC(F)(F)F)N1CCN(Cc2ccnc(Nc3nc4ccc(-c5cc(N6CCC6)ncn5)cc4[nH]3)c2)CC1` [Example 147.02, 1-(4-{[2-({6-[6-(azetidin-1-yl)pyrimidin-4-yl]-1H-benzimidazol-2-yl}amino)pyridin-4-yl]methyl}piperazin-1-yl)-3,3,3-trifluoropropan-1-one], under setting [1], the IC50 amounted to 0.0018 µM. In the case of `Cc1noc(-c2ccc3nc(Nc4cc(CN5C[C@@H](C)N(C(=O)OC(C)(C)C)C[C@@H]5C)ccn4)[nH]c3c2)n1` [Example 16.02.01, tert-butyl (2R,5S)-2,5-dimethyl-4-[(2-{[6-(3-methyl-1,2,4-oxadiazol-5-yl)-1H-benzimidazol-2-yl]amino}pyridin-4-yl)methyl]piperazine-1-carboxylate], the IC50 under setting [1] was determined as 2.26 µM.

With `O=C(C1CC1)N1CCN(Cc2ccnc(Nc3nc4ccc(-c5ccnc(C(F)(F)F)n5)cc4[nH]3)c2)CC1` [Example 27.01, cyclopropyl(4-{[2-({6-[2-(trifluoromethyl)pyrimidin-4-yl]-1H-benzimidazol-2-yl}amino)pyridin-4-yl]methyl}piperazin-1-yl)methanone], the IC50 under setting [1] stood at 0.164 µM.

On to `COc1cc(-c2ccc3nc(Nc4cc(C(C)N5CCN(C(=O)C6CC6)CC5)ccn4)[nH]c3c2)ncn1` (single isomer, unassigned) [Example 34.03.02.B, cyclopropyl{4-[(1S or 1R)-1-(2-{[6-(6-methoxypyrimidin-4-yl)-1H-benzimidazol-2-yl]amino}pyridin-4-yl)ethyl]piperazin-1-yl}methanone], for which the IC50 under setting [1] came out at 0.00722 µM.

In the case of `CSc1ncc(-c2ccc3nc(Nc4cc(CN5CCN(C(=O)CC6CC6)CC5)ccn4)[nH]c3c2)cn1` [Example 45.05.02, 2-cyclopropyl-1-(4-{[2-({6-[2-(methylsulfanyl)pyrimidin-5-yl]-1H-benzimidazol-2-yl}amino)pyridin-4-yl]methyl}piperazin-1-yl)ethanone], the IC50 under setting [1] is 1.02 µM. For the compound `Cc1c(-c2ccc3nc(Nc4cc(CN5CCN(C(=O)C6CC6)CC5)ccn4)[nH]c3c2)ncnc1C(F)(F)F` [Example 183.03, cyclopropyl(4-{[2-({6-[5-methyl-6-(trifluoromethyl)pyrimidin-4-yl]-1H-benzimidazol-2-yl}amino)pyridin-4-yl]methyl}piperazin-1-yl)methanone], under setting [1], the IC50 was found to be 2.24 µM.
